Laboratory results taken from patent US11992499B2, “Quinoline derivatives for use in the treatment of inflammation diseases” (ABIVAX, priority 2018, dated 2024).
“Also recorded” adds a separate entry of the source. Where two headings read alike, the source gives them in different places.

Key:
[1] = tested on: STAM model of non-alcoholic steatohepatitis; assay: STAM model of NASH: HE staining and NAFLD Activity score; assay type: in vivo, mice; parameters: key to NAFLD Activity score (mean ± SD): NAFLD Activity score per Kleiner et al. 2005 criteria
Method: (§1) NASH was induced in 48 male mice by a single subcutaneous injection of 200 μg streptozotocin (STZ, Sigma-Aldrich, USA) solution 2 days after birth and feeding with high fat diet (HFD, 57 kcal % fat, Cat #HFD32, CLEA Japan, Inc., Japan) after 4 weeks of age. Compound A was administered at 3 dose levels of 10, 20 and 40 mg/kg once daily from 6 to 9 weeks of age. Compound B was administered at a dose of 40 mg/kg once daily from 6 to 9 weeks of age. Telmisartan was administered at a dose of 10 mg/kg once daily from 6 to 9 weeks of age. For HE staining, sections were cut from paraffin blocks of liver tissue prefixed in Bouin's solution and stained with Lillie-Mayer's Hematoxylin (Muto Pure Chemicals Co., Ltd., Japan) and eosin solution (FUJIFILM Wako Pure Chemical Corporation). NAFLD Activity score (NAS) was calculated according to the criteria of Kleiner (Kleiner D E. et al., Hepatology, 2005; 41:1313). To visualize collagen deposition, Bouin's fixed liver sections were stained using picro-Sirius red solution (Waldeck, Germany). For quantitative analysis of fibrosis area, bright field images of Sirius red-stained sections were captured around the central vein using a digital camera (DFC295; Leica, Germany) at 200-fold magnification, and the positive areas in 5 fields/section were measured using ImageJ software (National Institute of Health, USA).

[2] = tested on: STAM model of non-alcoholic steatohepatitis; assay: STAM model of NASH: liver triglyceride content; assay type: in vivo, mice; conditions: for Liver triglyceride (mean ± SD): n = 8
Method: (§2) NASH was induced in 48 male mice by a single subcutaneous injection of 200 μg streptozotocin (STZ, Sigma-Aldrich, USA) solution 2 days after birth and feeding with high fat diet (HFD, 57 kcal % fat, Cat #HFD32, CLEA Japan, Inc., Japan) after 4 weeks of age.
(§3) Compound A was administered at 3 dose levels of 10, 20 and 40 mg/kg once daily from 6 to 9 weeks of age. Compound B was administered at a dose of 40 mg/kg once daily from 6 to 9 weeks of age. Telmisartan was administered at a dose of 10 mg/kg once daily from 6 to 9 weeks of age.
Liver total lipid-extracts were obtained by Folch's method (Folch J. et al., J. Biol. Chem. 1957; 226: 497). Liver samples were homogenized in chloroform-methanol (2:1, v/v) and incubated overnight at room temperature. After washing with chloroform-methanol-water (8:4:3, v/v/v), the extracts were evaporated to dryness, and dissolved in isopropanol. Liver triglyceride content was measured by Triglyceride E-test (FUJIFILM Wako Pure Chemical Corporation, Japan).

[3] = tested on: STAM model of non-alcoholic steatohepatitis; assay: STAM model of NASH: plasma ALT; assay type: in vivo, mice; conditions: for Plasma ALT (mean ± SD): n = 8
Method: NASH was induced in 48 male mice by a single subcutaneous injection of 200 μg streptozotocin (STZ, Sigma-Aldrich, USA) solution 2 days after birth and feeding with high fat diet (HFD, 57 kcal % fat, Cat #HFD32, CLEA Japan, Inc., Japan) after 4 weeks of age. Compound A was administered at 3 dose levels of 10, 20 and 40 mg/kg once daily from 6 to 9 weeks of age. Compound B was administered at a dose of 40 mg/kg once daily from 6 to 9 weeks of age. Telmisartan was administered at a dose of 10 mg/kg once daily from 6 to 9 weeks of age. For plasma biochemistry, non-fasting blood was collected in polypropylene tubes with anticoagulant (Novo-Heparin, Mochida Pharmaceutical Co. Ltd., Japan) and centrifuged at 1,000×g for 15 minutes at 4° C. The supernatant was collected and stored at −80° C. until use. Plasma ALT was measured by FUJI DRI-CHEM 7000 (Fujifilm, Japan).

[4] = tested on: STAM model of non-alcoholic steatohepatitis; assay: STAM model of NASH: Alpha-SMA immunostaining; assay type: in vivo, mice; conditions: for Alpha-SMA-positive area (mean ± SD): n = 8
Method: NASH was induced in 48 male mice by a single subcutaneous injection of 200 μg streptozotocin (STZ, Sigma-Aldrich, USA) solution 2 days after birth and feeding with high fat diet (HFD, 57 kcal % fat, Cat #HFD32, CLEA Japan, Inc., Japan) after 4 weeks of age. Compound A was administered at 3 dose levels of 10, 20 and 40 mg/kg once daily from 6 to 9 weeks of age. Compound B was administered at a dose of 40 mg/kg once daily from 6 to 9 weeks of age. Telmisartan was administered at a dose of 10 mg/kg once daily from 6 to 9 weeks of age. […] (Table 9 herein after)

[5] = tested on: STAM model of non-alcoholic steatohepatitis; assay: STAM model of NASH: Sirius red staining, fibrosis area; assay type: in vivo, mice; conditions: for Sirius red-positive area (fibrosis area, mean ± SD): n = 8
Method: as §1

[6] = tested on: STAM model of non-alcoholic steatohepatitis; assay type: in vivo; conditions: for Liver weight (mean ± SD) / Liver-to-body weight ratio (mean ± SD): n = 8
Excerpt: To prepare dosing solution, Compound A and B were weighed and suspended in Vehicle which was composed of 20% of Vehicle-A1 and 80% of Vehicle-A2. Vehicle-A1 was composed of 0.5% (w/v) Carboxymethyl cellulose (CMC) 400-800 centipoises in water for injection+2.5% (w/v) Tween 80. Vehicle-A2 was composed of 0.5% (w/v) Carboxymethyl cellulose (CMC) 400-800 centipoises in water for injection. Telmisartan (Micardis®) was purchased from Boehringer Ingelheim GmbH (Germany) and dissolved in pure water.
as §2
Compound A and B, and Telmisartan were administered orally in a volume of 10 mL/kg.
as §3
C57BL/6 mice (14-day-pregnant female) were obtained from Japan SLC, Inc. (Japan). All animals used in the study were housed and cared for in accordance with the Japanese Pharmacological Society Guidelines for Animal Use.
Group 1: Vehicle Eight NASH mice were orally administered vehicle [20% of Vehicle-A1 and 80% of Vehicle-A2] in a volume of 10 mL/kg once daily from 6 to 9 weeks of age.
Eight NASH mice were orally administered vehicle supplemented with Compound A at a dose of 10 mg/kg once daily from 6 to 9 weeks of age.
Eight NASH mice were orally administered vehicle supplemented with Compound A at a dose of 20 mg/kg once daily from 6 to 9 weeks of age.
Eight NASH mice were orally administered vehicle supplemented with Compound A at a dose of 40 mg/kg once daily from 6 to 9 weeks of age.
Eight NASH mice were orally administered vehicle supplemented with Compound B at a dose of 40 mg/kg once daily from 6 to 9 weeks of age.
Eight NASH mice were orally administered pure water supplemented with Telmisartan at a dose of 10 mg/kg once daily from 6 to 9 weeks of age.
The viability, clinical signs and behavior were monitored daily. Body weight was recorded before the treatment. […] The animals were sacrificed at 9 weeks of age by exsanguination through direct cardiac puncture under isoflurane anesthesia (Pfizer Inc.).

[7] = tested on: STAM model of non-alcoholic steatohepatitis; assay: STAM model of NASH: F4/80 immunostaining; assay type: in vivo, mice; conditions: for F4/80-positive area (mean ± SD): n = 8
Method: as §2, §3

[8] = summary statement, dose not stated
[9] = 10 mg/kg PO QD (Telmisartan group)
[10] = 10 mg/kg PO QD, 6-9 wks of age (Compound A low, Telmisartan groups)
[11] = 10 mg/kg PO QD (Compound A low, Telmisartan groups)
[12] = 10 mg/kg PO QD, 6-9 wks of age (Compound A low, Telmisartan groups), n = 8
[13] = 40 mg/kg PO QD (Compound B group)
[14] = 40 mg/kg PO QD, 6-9 wks of age (Compound A high, Compound B groups)
[15] = 40 mg/kg PO QD (Compound A high, Compound B groups)
[16] = 40 mg/kg PO QD, 6-9 wks of age (Compound A high, Compound B groups), n = 8

## O=C(O)[C@H]1O[C@@H](N(c2ccc(OC(F)(F)F)cc2)c2ccc3cccc(Cl)c3n2)[C@H](O)[C@@H](O)[C@@H]1O [drawing 253]
[1]; [8]
  NAS compared with the Vehicle group: decreasing trend

## CCCc1nc2c(C)cc(-c3nc4ccccc4n3C)cc2n1Cc1ccc(-c2ccccc2C(=O)O)cc1 [Telmisartan, reference compound]
[2]; [9]
  Liver triglyceride content compared with the Vehicle group: tended to decrease; also recorded: decreasing trend
[2]; [10]
  Liver triglyceride (mean ± SD): 41.5 ± 16.9 mg/g liver
[3]; [11]
  Plasma ALT level compared with the Vehicle group: no significant difference
[3]; [10]
  Plasma ALT (mean ± SD): 56 ± 14 U/L
[1]; [11]
  NAS compared with the Vehicle group: significant decrease
[1]; [12]
  Hepatocyte ballooning score 0 (None), number of mice: 7
  Hepatocyte ballooning score 1 (Few balloon cells), number of mice: 1
  Lobular inflammation score 2 (2-4 foci/200×), number of mice: 4
  Lobular inflammation score 3 (>4 foci/200×), number of mice: 4
  NAFLD Activity score (mean ± SD): 2.8 ± 0.7
  Steatosis score 0 (<5%), number of mice: 7
  Steatosis score 1 (5-33%), number of mice: 1
[4]; [9]
  Alpha-SMA-positive area compared with the Vehicle group: tended to decrease
[4]; [10]
  Alpha-SMA-positive area (mean ± SD): 0.83 ± 0.26%
[5]; [10]
  Sirius red-positive area (fibrosis area, mean ± SD): 0.70 ± 0.13%
[6]; [11]
  Mean liver weight compared with the Vehicle group: significant decrease
  Mean liver-to-body weight ratio compared with the Vehicle group: tended to decrease
[6]; [10]
  Liver weight (mean ± SD): 1115 ± 78 mg
  Liver-to-body weight ratio (mean ± SD): 6.5 ± 0.4%
[7]; [10]
  F4/80-positive area (mean ± SD): 3.03 ± 0.95%

## O=C(O)[C@H]1O[C@@H](N(c2ccc(OC(F)(F)F)cc2)c2ccc3cccc(Cl)c3n2)[C@H](O)[C@@H](O)[C@@H]1O [Compound B]
[2]; [13]
  Liver triglyceride content compared with the Vehicle group: tended to increase; also recorded: increasing trends
[2]; [14]
  Liver triglyceride (mean ± SD): 82.9 ± 32.6 mg/g liver
[3]; [15]
  Plasma ALT level compared with the Vehicle group: tended to increase; also recorded: increasing trends
[3]; [14]
  Plasma ALT (mean ± SD): 72 ± 24 U/L
[1]; [15]
  NAS compared with the Vehicle group: tended to decrease; also recorded: decreasing trend
[1]; [16]
  Hepatocyte ballooning score 0 (None), number of mice: 5
  Hepatocyte ballooning score 1 (Few balloon cells), number of mice: 2
  Hepatocyte ballooning score 2 (Many cells/prominent ballooning), number of mice: 1
  Lobular inflammation score 2 (2-4 foci/200×), number of mice: 3
  Lobular inflammation score 3 (>4 foci/200×), number of mice: 5
  NAFLD Activity score (mean ± SD): 3.6 ± 1.2
  Steatosis score 0 (<5%), number of mice: 4
  Steatosis score 1 (5-33%), number of mice: 4
[1]; conclusion of the study
  Overall effect in this NASH model: potential anti-NAS effect
[1]; [8]
  NAS compared with the Vehicle group: decreasing trends
[4]; [14]
  Alpha-SMA-positive area (mean ± SD): 1.17 ± 0.79%
[5]; [13]
  Fibrosis area (Sirius red-positive area) compared with the Vehicle group: tended to increase; also recorded: increasing trends
[5]; [14]
  Sirius red-positive area (fibrosis area, mean ± SD): 0.94 ± 0.23%
[6]; [15]
  Mean liver weight compared with the Vehicle group: tended to increase
  Mean liver-to-body weight ratio compared with the Vehicle group: tended to increase
[6]; [14]
  Liver weight (mean ± SD): 1606 ± 227 mg
  Liver-to-body weight ratio (mean ± SD): 8.1 ± 1.1%
[7]; [15]
  F4/80-positive area compared with the Vehicle group: tended to decrease
[7]; [14]
  F4/80-positive area (mean ± SD): 1.90 ± 0.89%
